From patent US9133207B2, “Tetrandrine derivatives with substituted 5-carbon, preparation method and use thereof” (Hangzhou Bensheng Pharmaceutical Co., Ltd., priority 2011, dated 2015)
In brackets after ≈: the same amount, converted by molar mass. One block for each compound: values may come before it.

Columns and labels:
[1] = test system: Kasumi-1 (acute myeloid leukemia M2 type, AML-M2); test: Leukemia cell growth inhibition, MTT, 72 h (Example 5); assay type: cell-based, human; conditions: Homo sapiens, Kasumi 1
Outline: (§1)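 An MTT read-out of viable cell concentration follows 72 h incubation (37° C, 5% CO2) of 6000 cells/well in 10% FBS-supplemented 1640 medium with the 5-substituted derivatives at varying concentrations.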

[2] = test system: H9 (acute lymphoblastic leukemia, ALL); test: as above; assay type: cell-based, human; conditions: Homo sapiens; 72 h, MTT
Outline: as §1

[3] = test system: NB4 (acute promyelocytic leukemia, AML); test: as above; assay type: cell-based, human; conditions: Homo sapiens; 72 h, MTT
Outline: as §1

[4] = test system: K562/adr (drug-resistant, chronic myeloid leukemia, CML); test: as above; assay type: cell-based, human; conditions: Homo sapiens, K562/Adr; 72 h, MTT
Outline: as §1

[5] = test system: Jurkat (acute lymphoblastic leukemia, ALL); test: as above; assay type: cell-based, human; conditions: for IC50 / IC90: Homo sapiens, Jurkat, 72 h, MTT; for anti-Jurkat activity increase over tetrandrine: compared with tetrandrine
Outline: as §1

[6] = test system: Hep-2 (laryngeal carcinoma); test: Solid tumor cell growth inhibition, MTT, 72 h (Example 7); assay type: cell-based, human; conditions: Homo sapiens; 72 h, MTT, Hep 2
Outline: (§2)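 4000 cells/well; DMEM high glucose + 10% FBS; 37 °C, 5% CO2; 24 h pre-culture; tetrandrine derivatives, varied conc., 72 h; MTT readout; viability % vs untreated control = 100%.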

PC-3 (prostate cancer) = test: as above; assay type: cell-based, human; conditions: Homo sapiens; 72 h, MTT, PC-3
Outline: as §2

[7] = test system: CaES-17 (esophageal cancer cell); test: as above; assay type: cell-based, human; conditions: Homo sapiens, CaEs17; 72 h, MTT, CAES-17
Outline: as §2

MG63 (osteosarcoma) = test: as above; assay type: cell-based, human; conditions: Homo sapiens; 72 h, MTT, MG-63
Outline: as §2

[8] = test system: PANC-1 (pancreatic cancer); test: as above; assay type: cell-based, human; conditions: Homo sapiens; 72 h, MTT, PANC-1
Outline: as §2

[9] = test system: RPMI8226 (multiple myeloma); test: Multiple myeloma cell growth inhibition, MTT, 72 h (Example 6); assay type: cell-based, human; conditions: Homo sapiens, RPMI-8226; 72 h, MTT, RPMI8226
Outline: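 Viability was read by MTT after 72 h of compound exposure at 37 °C, 5% CO2. Each well held 6000 RPMI8226 cells in 1640 medium containing 10% fetal bovine serum, with derivatives added at various concentrations.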

A549 (human lung cancer) = test: Solid tumor cell growth inhibition, MTT, 72 h (Example 7); assay type: cell-based; conditions: Homo sapiens; 72 h, MTT, A549
Outline: as §2

[10] = test system: SK-OV-3 (ovarian cancer cell); test: as above; assay type: cell-based; conditions: Homo sapiens
Outline: as §2

[11] = test system: RKO (human colon adenocarcinoma cell); test: as above; assay type: cell-based; conditions: Homo sapiens; 72 h, MTT, RKO
Outline: as §2

[12] = test system: Huh7 (human liver cancer cell); test: as above; assay type: cell-based; conditions: Homo sapiens; 72 h, MTT, Huh-7
Outline: as §2

[13] = test system: Hela (human cervical cancer cell); test: as above; assay type: cell-based; conditions: Homo sapiens; 72 h, MTT, Hela
Outline: as §2

[14] = test system: MGC 803 (human gastric cancer cell); test: as above; assay type: cell-based; conditions: Homo sapiens
Outline: as §2

[15] = test system: U87 MG (malignant glioma cell); test: as above; assay type: cell-based; conditions: Homo sapiens, U-87 MG
Outline: as §2

[16] = test system: Becap37 (human breast cancer cell); test: as above; assay type: cell-based; conditions: Homo sapiens; 72 h, MTT, Becap-37
Outline: as §2

[17] = test system: CNE (nasopharyngeal carcinoma cell); test: as above; assay type: cell-based; conditions: Homo sapiens
Outline: as §2

- IC50 [1]: 0.5 µg/mL (≈ 0.681 µM)
- IC90 [1]: 2.68 µg/mL (≈ 3.65 µM)
- IC50 [2]: 1.01 µg/mL (≈ 1.38 µM)
- IC90 [2]: 2.3 µg/mL (≈ 3.13 µM)
- IC50 [3]: 0.54 µg/mL (≈ 0.736 µM)
- IC90 [3]: 1.5 µg/mL (≈ 2.04 µM)
- IC50 [4]: 0.31 µg/mL (≈ 0.422 µM)
- IC90 [4]: 2.05 µg/mL (≈ 2.79 µM)
- IC50 [5]: 0.58 µg/mL (≈ 0.79 µM)
- IC90 [5]: 3.79 µg/mL (≈ 5.16 µM)
- IC50 [6]: 1.79 µg/mL (≈ 2.44 µM)
- IC90 [6]: 6.83 µg/mL (≈ 9.31 µM)
- IC50 (PC-3 (prostate cancer)): 2.92 µg/mL (≈ 3.98 µM)
- IC90 (PC-3 (prostate cancer)): 4.9 µg/mL (≈ 6.68 µM)
- IC50 [7]: 1.29 µg/mL (≈ 1.76 µM)
- IC90 [7]: 7.23 µg/mL (≈ 9.85 µM)
- IC50 (MG63 (osteosarcoma)): 0.8 µg/mL (≈ 1.09 µM)
- IC90 (MG63 (osteosarcoma)): 1.5 µg/mL (≈ 2.04 µM)
- IC50 [8]: 2.31 µg/mL (≈ 3.15 µM)
- IC90 [8]: 8.26 µg/mL (≈ 11.3 µM)
- IC50 [9]: 0.02 µg/mL (≈ 0.0272 µM)
- IC90 [9]: 0.06 µg/mL (≈ 0.0817 µM)
- IC50 (A549 (human lung cancer)): 2.5 µg/mL (≈ 3.41 µM)
- IC90 (A549 (human lung cancer)): 8 µg/mL (≈ 10.9 µM)
- IC50 [10]: 3.9 µg/mL (≈ 5.31 µM)
- IC90 [10]: > 16 µg/mL
- IC50 [11]: 0.73 µg/mL (≈ 0.995 µM)
- IC90 [11]: 1.9 µg/mL (≈ 2.59 µM)
- IC50 [12]: 1.63 µg/mL (≈ 2.22 µM)
- IC90 [12]: 2.49 µg/mL (≈ 3.39 µM)
- IC50 [13]: 1.83 µg/mL (≈ 2.49 µM)
- IC90 [13]: 5 µg/mL (≈ 6.81 µM)
- IC50 [14]: 0.9 µg/mL (≈ 1.23 µM)
- IC90 [14]: 4.98 µg/mL (≈ 6.79 µM)
- IC50 [15]: 0.19 µg/mL (≈ 0.259 µM)
- IC90 [15]: 0.57 µg/mL (≈ 0.777 µM)
- IC50 [16]: 0.8 µg/mL (≈ 1.09 µM)
- IC90 [16]: 2.3 µg/mL (≈ 3.13 µM)
- IC50 [17]: 2.5 µg/mL (≈ 3.41 µM)
- IC90 [17]: 5.4 µg/mL (≈ 7.36 µM)
Compound: COc1ccc2cc1Oc1ccc(cc1)C[C@H]1c3cc(c(OC)cc3CCN1C)Oc1c(OC)c(OC)c(CN3CCCC(C)C3)c3c1[C@H](C2)N(C)CC3 (some centres unmarked) [BS-TE-346]
- anti-Jurkat activity increase over tetrandrine [5]: ~4 fold

- IC50 [1]: 0.54 µg/mL (≈ 0.738 µM)
- IC90 [1]: 2.52 µg/mL (≈ 3.44 µM)
- IC50 [2]: 1.11 µg/mL (≈ 1.52 µM)
- IC90 [2]: 1.92 µg/mL (≈ 2.62 µM)
- IC50 [3]: 0.3 µg/mL (≈ 0.41 µM)
- IC90 [3]: 1 µg/mL (≈ 1.37 µM)
- IC50 [4]: 0.33 µg/mL (≈ 0.451 µM)
- IC90 [4]: 1.6 µg/mL (≈ 2.19 µM)
- IC50 [5]: 0.59 µg/mL (≈ 0.806 µM)
- IC90 [5]: 2.97 µg/mL (≈ 4.06 µM)
- IC50 [6]: 1.51 µg/mL (≈ 2.06 µM)
- IC90 [6]: 4.67 µg/mL (≈ 6.38 µM)
- IC50 (PC-3 (prostate cancer)): 1.87 µg/mL (≈ 2.56 µM)
- IC90 (PC-3 (prostate cancer)): 2.83 µg/mL (≈ 3.87 µM)
- IC50 [7]: 1.03 µg/mL (≈ 1.41 µM)
- IC90 [7]: 5.13 µg/mL (≈ 7.01 µM)
- IC50 (MG63 (osteosarcoma)): 0.8 µg/mL (≈ 1.09 µM)
- IC90 (MG63 (osteosarcoma)): 1.6 µg/mL (≈ 2.19 µM)
- IC50 [8]: 1.83 µg/mL (≈ 2.5 µM)
- IC90 [8]: 6.04 µg/mL (≈ 8.25 µM)
- IC50 [9]: 0.05 µg/mL (≈ 0.0683 µM)
- IC90 [9]: 1.51 µg/mL (≈ 2.06 µM)
- IC50 (A549 (human lung cancer)): 3 µg/mL (≈ 4.1 µM)
- IC90 (A549 (human lung cancer)): 11 µg/mL (≈ 15 µM)
- IC50 [10]: 1.8 µg/mL (≈ 2.46 µM)
- IC90 [10]: 12.9 µg/mL (≈ 17.6 µM)
- IC50 [11]: 0.45 µg/mL (≈ 0.615 µM)
- IC90 [11]: 0.92 µg/mL (≈ 1.26 µM)
- IC50 [12]: 1.82 µg/mL (≈ 2.49 µM)
- IC90 [12]: 2.43 µg/mL (≈ 3.32 µM)
- IC50 [13]: 0.95 µg/mL (≈ 1.3 µM)
- IC90 [13]: 2.5 µg/mL (≈ 3.42 µM)
- IC50 [14]: 0.89 µg/mL (≈ 1.22 µM)
- IC90 [14]: 4.11 µg/mL (≈ 5.62 µM)
- IC50 [15]: 0.3 µg/mL (≈ 0.41 µM)
- IC90 [15]: 1.13 µg/mL (≈ 1.54 µM)
- IC50 [16]: 0.9 µg/mL (≈ 1.23 µM)
- IC90 [16]: 3.6 µg/mL (≈ 4.92 µM)
- IC50 [17]: 1.3 µg/mL (≈ 1.78 µM)
- IC90 [17]: 3.3 µg/mL (≈ 4.51 µM)
Compound: COc1ccc2cc1Oc1ccc(cc1)C[C@H]1c3cc(c(OC)cc3CCN1C)Oc1c(OC)c(OC)c(CNCc3ccco3)c3c1[C@H](C2)N(C)CC3 [BS-TE-350]
- anti-Jurkat activity increase over tetrandrine [5]: ~4 fold

- IC50 [1]: 0.76 µg/mL (≈ 1.01 µM)
- IC90 [1]: 3.59 µg/mL (≈ 4.79 µM)
- IC50 [2]: 0.72 µg/mL (≈ 0.96 µM)
- IC90 [2]: 1.58 µg/mL (≈ 2.11 µM)
- IC50 [3]: 0.7 µg/mL (≈ 0.933 µM)
- IC90 [3]: 1.9 µg/mL (≈ 2.53 µM)
- IC50 [4]: 0.82 µg/mL (≈ 1.09 µM)
- IC90 [4]: 3.11 µg/mL (≈ 4.15 µM)
- IC50 [5]: 1 µg/mL (≈ 1.33 µM)
- IC90 [5]: 5.02 µg/mL (≈ 6.69 µM)
- IC50 [6]: 3.07 µg/mL (≈ 4.09 µM)
- IC90 [6]: 8.13 µg/mL (≈ 10.8 µM)
- IC50 (PC-3 (prostate cancer)): 1.82 µg/mL (≈ 2.43 µM)
- IC90 (PC-3 (prostate cancer)): 3.32 µg/mL (≈ 4.43 µM)
- IC50 [7]: 1.38 µg/mL (≈ 1.84 µM)
- IC90 [7]: 8.19 µg/mL (≈ 10.9 µM)
- IC50 (MG63 (osteosarcoma)): 1.2 µg/mL (≈ 1.6 µM)
- IC90 (MG63 (osteosarcoma)): 2 µg/mL (≈ 2.67 µM)
- IC50 [8]: 1.87 µg/mL (≈ 2.49 µM)
- IC90 [8]: 7.79 µg/mL (≈ 10.4 µM)
- IC50 [9]: 0.09 µg/mL (≈ 0.12 µM)
- IC90 [9]: 2.43 µg/mL (≈ 3.24 µM)
- IC50 (A549 (human lung cancer)): 3.9 µg/mL (≈ 5.2 µM)
- IC90 (A549 (human lung cancer)): 16 µg/mL (≈ 21.3 µM)
- IC50 [10]: 3.5 µg/mL (≈ 4.67 µM)
- IC90 [10]: > 16 µg/mL
- IC50 [11]: 0.45 µg/mL (≈ 0.6 µM)
- IC90 [11]: 1.25 µg/mL (≈ 1.67 µM)
- IC50 [12]: 1.3 µg/mL (≈ 1.73 µM)
- IC90 [12]: 2.41 µg/mL (≈ 3.21 µM)
- IC50 [13]: 1.25 µg/mL (≈ 1.67 µM)
- IC90 [13]: 3.61 µg/mL (≈ 4.81 µM)
- IC50 [14]: 1.49 µg/mL (≈ 1.99 µM)
- IC90 [14]: 7.42 µg/mL (≈ 9.89 µM)
- IC50 [15]: 0.28 µg/mL (≈ 0.373 µM)
- IC90 [15]: 0.67 µg/mL (≈ 0.893 µM)
- IC50 [16]: 1.08 µg/mL (≈ 1.44 µM)
- IC90 [16]: 4.5 µg/mL (≈ 6 µM)
- IC50 [17]: 1.32 µg/mL (≈ 1.76 µM)
- IC90 [17]: 3.84 µg/mL (≈ 5.12 µM)
Compound: COc1ccc2cc1Oc1ccc(cc1)C[C@H]1c3cc(c(OC)cc3CCN1C)Oc1c(OC)c(OC)c(CN3CCCC(CO)C3)c3c1[C@H](C2)N(C)CC3 (some centres unmarked) [BS-TE-351]
